Test results as given in patent publication US12528814B2, “Bifunctional degraders of interleukin-1 receptor-associated kinases and therapeutic use thereof” (NURIX THERAPEUTICS, INC., priority 2020, dated 2026).

How the values were obtained:
[1] = target: T1, IRAK4 (Homo sapiens (Human), UniProt Q9NWZ3); assay: IRAK4 Biochemical HTRF Kinase Assay; conditions: Table 5; multiple runs; read-out: IRAK4 HTRF biochemical: IC50
Method in brief: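 HTRF KinEASE STK S1 format measuring IRAK4 phosphorylation of biotinylated peptide; reaction solution of 5 μM STK-S1, 10 mM ATP, 10 mM MgCl2 added (stock, to 10 μl final), 90 min at ambient temperature, detection 60 min. IC50 from sixteen-point duplicate curves by non-linear regression.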
Target sequence in this assay (Q9NWZ3 whole entry, species assumed): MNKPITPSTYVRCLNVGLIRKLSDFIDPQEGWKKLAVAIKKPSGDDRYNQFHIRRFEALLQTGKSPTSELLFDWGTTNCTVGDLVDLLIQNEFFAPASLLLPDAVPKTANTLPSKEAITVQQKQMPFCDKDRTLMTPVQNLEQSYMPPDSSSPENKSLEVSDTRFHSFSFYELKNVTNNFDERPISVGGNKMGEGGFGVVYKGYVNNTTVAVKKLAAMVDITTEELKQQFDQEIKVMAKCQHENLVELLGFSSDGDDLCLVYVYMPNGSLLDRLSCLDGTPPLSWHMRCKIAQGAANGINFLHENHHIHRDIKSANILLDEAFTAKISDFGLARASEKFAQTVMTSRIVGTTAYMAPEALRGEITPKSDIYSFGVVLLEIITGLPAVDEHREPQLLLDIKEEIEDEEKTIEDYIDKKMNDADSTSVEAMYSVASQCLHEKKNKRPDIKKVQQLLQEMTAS

[2] = target: T1, IRAK4; assay: IRAK4 Degradation HiBiT Assay; conditions: multiple runs, HiBiT-tagged Jurkat cells, 4 hrs; for Dmax: Jurkat, read-out: Cellular IRAK4 HiBiT: Dmax, Table 5; for DC50: read-out: Cellular IRAK4 HiBiT: DC50
Target sequence in this assay (Q9NWZ3 whole entry): as the sequence (Q9NWZ3 whole entry, species assumed) above

Row | IC50 [1] | Dmax [2] | DC50 ([2]; Table 5) | Cellular IRAK4 HiBiT: Dmax ([2]; Table 5) | SMILES
1 | 5.5 nM | 115% | 247 nM |  | Cc1ncsc1-c1ccc(CNC(=O)[C@@H]2C[C@@H](O)CN2C(=O)[C@@H](NC(=O)C2(F)CC2)C(C)(C)C)c(OCC(=O)N2CCC(CN3CCN(c4nnc(-c5cnc(-c6ccc7cc(C#N)cnn67)cc5NC(C)C)s4)CC3)CC2)c1 [Example 84, (2S,4R)—N-(2-(2-(4-((4-(5-(6-(3-cyanopyrrolo[1,2-b]pyridazin-7-yl)-4-(isopropylamino)pyridin-3-yl)-1,3,4-thiadiazol-2-yl)piperazin-1-yl)methyl)piperidin-1-yl)-2-oxoethoxy)-4-(4-methylthiazol-5-yl)benzyl)-1-((S)-2-(1-fluorocyclopropane-1-carboxamido)-3,3-dimethylbutanoyl)-4-hydroxypyrrolidine-2-carboxamide]
2 | 1.4 nM | 103% | 50.6 nM |  | CCN(C(=O)C[C@H](NC(=O)[C@@H]1C[C@@H](O)CN1C(=O)C(c1cc(C)no1)C(C)C)c1ccc(-c2scnc2C)cc1)[C@H]1CC[C@H](c2nnc(-c3cnc(-c4ccc5cc(C#N)cnn45)cc3NC)s2)CC1 (stereo partly drawn) [Example 192, (2S,4R)—N—((S)-3-(((1r,4S)-4-(5-(6-(3-cyanopyrrolo[1,2-b]pyridazin-7-yl)-4-(methylamino)pyridin-3-yl)-1,3,4-thiadiazol-2-yl)cyclohexyl)(ethyl)amino)-1-(4-(4-methylthiazol-5-yl)phenyl)-3-oxopropyl)-4-hydroxy-1-(3-methyl-2-(3-methylisoxazol-5-yl)butanoyl)pyrrolidine-2-carboxamide]
3 | 1.9 nM | 115% | 258 nM |  | CNc1cc(-c2ccc3cc(C#N)cnn23)ncc1-c1nnc(C23CCC(NC(=O)[C@H]4C[C@H]4C(=O)N[C@H](C(=O)N4C[C@H](O)C[C@H]4C(=O)N[C@@H](C)c4ccc(-c5scnc5C)cc4)C(C)(C)C)(CC2)CC3)s1 (mixture of isomers) [Example 142, (1RS,2SR)—N1-(4-(5-(6-(3-cyanopyrrolo[1,2-b]pyridazin-7-yl)-4-(methylamino)pyridin-3-yl)-1,3,4-thiadiazol-2-yl)bicyclo[2.2.2]octan-1-yl)-N2—((S)-1-((2S,4R)-4-hydroxy-2-(((S)-1-(4-(4-methylthiazol-5-yl)phenyl)ethyl)carbamoyl)pyrrolidin-1-yl)-3,3-dimethyl-1-oxobutan-2-yl)cyclopropane-1,2-dicarboxamide]
4 | 1.1 nM |  | 33.4 nM | 32% | CNc1cc(-c2ccc3cc(C#N)cnn23)ncc1-c1nnc([C@H]2CC[C@@H](NC(=O)CCCCCNc3cccc4c3C(=O)N(C3CCC(=O)NC3=O)C4=O)CC2)s1 (stereo partly drawn) [Example 120, N-((1s,4s)-4-(5-(6-(3-cyanopyrrolo[1,2-b]pyridazin-7-yl)-4-(methylamino)pyridin-3-yl)-1,3,4-thiadiazol-2-yl)cyclohexyl)-6-((2-(2,6-dioxopiperidin-3-yl)-1,3-dioxoisoindolin-4-yl)amino)hexanamide]
5 | 2.4 nM | 117% | 42.2 nM |  | CNc1cc(-c2ccc3cc(C#N)cnn23)ncc1-c1nnc([C@H]2CC[C@H](NC(=O)C34CC(C(=O)N[C@H](C(=O)N5C[C@H](O)C[C@H]5C(=O)N[C@@H](C)c5ccc(-c6scnc6C)cc5)C(C)(C)C)(C3)C4)CC2)s1 [Example 101, N1-((1r,4S)-4-(5-(6-(3-cyanopyrrolo[1,2-b]pyridazin-7-yl)-4-(methylamino)pyridin-3-yl)-1,3,4-thiadiazol-2-yl)cyclohexyl)-N3-((S)-1-((2S,4R)-4-hydroxy-2-(((S)-1-(4-(4-methylthiazol-5-yl)phenyl)ethyl)carbamoyl)pyrrolidin-1-yl)-3,3-dimethyl-1-oxobutan-2-yl)bicyclo[1.1.1]pentane-1,3-dicarboxamide]
